Measurements as given in PMC6274284 (Molecules, 2016).

Assays:
[1] = system: hGRX
[2] = molecular target: T1, hGRX1 (Homo sapiens, UniProt P35754, C83S); type: binding
[3] = molecular target: T1, hGRX1; assay: biochemical; type: binding
[4] = molecular target: T1, hGRX1; type: binding; remark: listed apart in the source

T1 sequence (P35754 whole entry C83S, looked up): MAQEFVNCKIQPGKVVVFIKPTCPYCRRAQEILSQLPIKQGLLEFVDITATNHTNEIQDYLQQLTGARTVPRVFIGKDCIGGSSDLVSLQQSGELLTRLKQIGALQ

Row | Compound | MaxRel.STD hGRX1 [2] [%] | other results
1 | C=CC(N)=O [acrylamide, reference compound] | – | Reaction half life, hGRX ([1]; human): about 20 h
2 | OCc1cc(-c2cccs2)[nH]n1 [RK126] | 23.4 | –
3 | O=C(O)c1ccc(-n2cccc2)cc1 [RK207] | 0.5 | Kd [3]: 2.45 ± 0.52 mM
4 | Nc1ccc(CN2CCOCC2)cc1 [RK428] | 0.6 | –
5 | Cn1nc(C(=O)O)cc1-c1ccccc1 [RK246] | 0.6 | Kd [3]: 5.22 ± 1.16 mM
6 | Nc1ccccc1N1CCNCC1 [RK155] | – | trNOE binding result, hGRX1 [4]: did not bind
7 | COCc1cc(=O)oc2cc(N)ccc12 [RK411] | 13.7 | –
8 | COC(=O)c1cccc2cc[nH]c12 [RK028] | 11.2 | –
9 | O=C(O)c1ccc(-c2cnco2)cc1 [RK036] | 2.1 | –
10 | C=CC(=O)NCc1ccn(-c2ccc(C(=O)OC)cc2)c1 [compound 5, Methyl 4-(3-(Acrylamidomethyl)-1H-pyrrol-1-yl)benzoate] | – | Enhancement of rate of reaction over naked acrylamide, hGRX [1]: about 35 fold
11 | COCc1cc(=O)oc2cc(O)c(Cl)cc12 [RK450] | 37.1 | –
